Reference: PMC6268941, “The Binding Affinity and Molecular Basis of the Structure-Binding Relationship between Urinary Tamm-Horsfall Glycoprotein and Tumor Necrosis Factor-α” (Molecules, 2012)

Target: T1, THP-TNF-α (Tamm-Horsfall glycoprotein / tumor necrosis factor-α binding pair) (Homo sapiens, UniProt P01375+P07911)
T1 construct: recombinant human TNF-α (R&D Systems, 17 kDa); native THP purified from normal human urine (80-90 kDa)
Experiment: ELISA, monosaccharide inhibition of THP-TNF-α binding
Conditions: 10 µg sugar preincubated overnight at 4 °C with coated TNF-α or coated THP, then the other protein added; which partner holds the sugar is not resolved

T1 sequence (P01375 77-233, other chains not shown): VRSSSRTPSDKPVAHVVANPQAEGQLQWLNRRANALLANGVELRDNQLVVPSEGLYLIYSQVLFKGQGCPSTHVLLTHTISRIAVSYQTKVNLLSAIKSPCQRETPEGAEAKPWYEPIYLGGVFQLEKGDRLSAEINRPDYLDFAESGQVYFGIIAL

SMILES	ELISA, monosaccharide inhibition of THP-TNF-α binding
CC(=O)N[C@H]1C(O)O[C@H](CO)[C@H](O)[C@@H]1O (stereo partly drawn) [N-acetyl-galactosamine]	mannose, GlcNAc, and GalNAc significantly suppressed THP-TNF-α binding
CC(=O)N[C@H]1C(O)O[C@H](CO)[C@@H](O)[C@@H]1O (stereo partly drawn) [N-acetyl-glucosamine]	mannose, GlcNAc, and GalNAc significantly suppressed THP-TNF-α binding
CO[C@H]1O[C@H](CO)[C@@H](O)[C@H](O)[C@@H]1O [α-methyl-D-mannoside]	mannose, GlcNAc, and GalNAc significantly suppressed THP-TNF-α binding
